Measurements: patent US20120295845A1, “IMIDAZO-PYRAZOLES AS GPR119 INHIBITORS” (Pfizer Inc, priority 2009, published 2012)
Where “and” joins values, the source holds several entries; their conditions need not be identical. Identical values can stand only once.

Target: T1, human GPR119 (Homo sapiens, UniProt Q8TDV5)
T1 construct: host or cells: HEK293-CRE beta-lactamase cells
T1 sequence (Q8TDV5 1-335): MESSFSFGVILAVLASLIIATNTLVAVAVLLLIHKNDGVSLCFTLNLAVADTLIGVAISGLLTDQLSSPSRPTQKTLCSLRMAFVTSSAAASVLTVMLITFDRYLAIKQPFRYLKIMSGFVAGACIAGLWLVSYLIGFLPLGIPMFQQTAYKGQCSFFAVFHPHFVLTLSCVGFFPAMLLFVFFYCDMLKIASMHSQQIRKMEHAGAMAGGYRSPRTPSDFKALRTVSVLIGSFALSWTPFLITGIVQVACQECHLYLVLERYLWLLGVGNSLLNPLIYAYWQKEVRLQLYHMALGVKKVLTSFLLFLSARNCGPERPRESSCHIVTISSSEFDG
Experiment: GPR119 radioligand binding assay ([3H]-Compound A or [3H]-Compound B, membranes of HEK 293FT cells expressing hGPR119)
Details: Ki calculated from IC50 by the Cheng-Prusoff equation; one value per run
Procedure: HEK 293FT cells (Invitrogen, Carlsbad, Calif.) were grown in a shake flask in 293Freestyle medium (Invitrogen) supplemented with 50 microg/mL neomycin and 10 mM HEPES (37C, 8% carbon dioxide, shaking). The cells were centrifuged gently (approximately 500×g, 10 minutes) and the pellet resuspended in a mixture of Dulbecco's PBS (minus Mg++/Ca++) supplemented with 18% fetal bovine serum (Sigma Aldrich) and P1 virus such that the multiplicity of infection (MOI) was 10 and the final cell density was 1.3×10^6/mL (total volume 2.5 liters). The cells were transferred to a 5 liter Wave Bioreactor Wavebag (Wave Technologies, Mass.) and incubated for 4 hours at 27 degrees Celsius (17 rocks/min, 7 degrees platform angle); at the end of the incubation period, an equal volume (2.5 liters) of 293Freestyle medium supplemented with 30 mM sodium butyrate (Sigma Aldrich) was added (final concentration=15 mM), and the cells were grown for 20 hours (37 degrees Celsius, 8% CO2 [0.2 liters/min}, 25 rocks/minute, 7 degrees platform angle). Cells were harvested via centrifugation (3,000×g, 10 minutes), washed once on DPBS (minus Ca++/Mg++), resuspended in 0.25M sucrose, 25 mM HEPES, 0.5 mM EDTA, pH 7.4 and frozen at −80 degrees Celsius.
The frozen cells were thawed on ice and centrifuged at 700×g (1400 rpm) for 10 minutes at 4 degrees Celsius. The cell pellet was resuspended in 20 mL phosphate-buffered saline, and centrifuged at 1400 rpm for 10 minutes. The cell pellet was then resuspended in homogenization buffer (10 mM HEPES (Gibco #15630), pH 7.5, 1 mM EDTA (BioSolutions, #BIO260-15), 1 mM EGTA (Sigma, #E-4378), 0.01 mg/mL benzamidine (Sigma #B 6506), 0.01 mg/mL bacitracin (Sigma #B 0125), 0.005 mg/mL leupeptin (Sigma #L 8511), 0.005 mg/mL aprotinin (Sigma #A 1153)) and incubated on ice for 10 minutes. Cells were then lysed with 15 gentle strokes of a tight-fitting glass Dounce homogenizer. The homogenate was centrifuged at 1000×g (2200 rpm) for 10 minutes at 4 degrees Celsius. The supernatant was transferred into fresh centrifuge tubes on ice. The cell pellet was resuspended in homogenization buffer, and centrifuged again at 1000×g (2200 rpm) for 10 minutes at 4 degrees Celsius after which the supernatant was removed and the pellet resuspended in homogenization buffer. This process was repeated a third time, after which the supernatants were combined, Benzonase (Novagen # 71206) and MgC12 (Fluka #63020) were added to final concentrations of 1 U/mL and 6 mM, respectively, and incubated on ice for one hour. The solution was then centrifuged at 25,000×g (15000 rpm) for 20 minutes at 4 degrees Celsius, the supernatant was discarded, and the pellet was resuspended in fresh homogenization buffer (minus Benzonase and MgCl2). After repeating the 25,000×g centrifugation step, the final membrane pellet was resuspended in homogenization buffer and frozen at −80 degrees Celsius. The protein concentration was determined using the Pierce BCA protein assay kit (Pierce reagents A #23223 and B #23224).
Test compounds were serially diluted in 100% DMSO (J. T. Baker #922401). 2 microL of each dilution was added to appropriate wells of a 96-well plate (each concentration in triplicate). Unlabeled Compound A (or Compound B), at a final concentration of 10 microM, was used to determine non-specific binding. [^3H]-Compound A (or [^3H]-Compound B) was diluted in binding buffer (50 mM Tris-HCl, pH 7.5, (Sigma #T7443), 10 mM MgCl2 (Fluka 63020), 1 mM EDTA (BioSolutions #BIO260-15), 0.15% bovine serum albumin (Sigma #A7511), 0.01 mg/mL benzamidine (Sigma #B 6506), 0.01 mg/mL bacitracin (Sigma #B 0125), 0.005 mg/mL leupeptin (Sigma #L 8511), 0.005 mg/mL aprotinin (Sigma #A 1153)) to a concentration of 60 nM, and 100 microL added to all wells of 96-well plate (Nalge Nunc # 267245). Membranes expressing GPR119 were thawed and diluted to a final concentration of 20 μg/100 microL per well in Binding Buffer, and 100 microL of diluted membranes were added to each well of 96-well plate. […]

Row | Structure (SMILES) | Ki
1 | Cc1c(O[C@H]2CCN(C(=O)OC3(C)CC3)C[C@H]2F)ncnc1N1CCn2nccc21 (racemic) [Example 3, 1-Methylcyclopropyl (3R,4S)-4-{[6-(2,3-dihydro-1H-imidazo[1,2-b]pyrazol-1-yl)-5-methylpyrimidin-4-yl]oxy}-3-fluoropiperidine-1-carboxylate (racemic)] | 74 nM and 83 nM and 85 nM and 97 nM and 71 nM and 34 nM and 50 nM
2 | Cc1c(O[C@H]2CCN(C(=O)OC(C)C)C[C@H]2F)ncnc1N1CCn2nccc21 (racemic) [Example 4, Isopropyl (3R,4S)-4-{[6-(2,3-dihydro-1H-imidazo[1,2-b]pyrazol-1-yl)-5-methylpyrimidin-4-yl]oxy}-3-fluoropiperidine-1-carboxylate (racemic)] | 140 nM
3 | Cc1c(O[C@@H]2CCN(C(=O)OC3(C)CC3)C[C@@H]2F)ncnc1N1CCn2nccc21 (single isomer, unassigned) [Example 5] | 57 nM and 38 nM and 50 nM and 64 nM and 44 nM and 13 nM and 42 nM and 104 nM and 46 nM
4 | Cc1c(O[C@H]2CCN(C(=O)OC3(C)CC3)C[C@H]2F)ncnc1N1CCn2nccc21 (single isomer, unassigned) [Example 6] | 69 nM and 295 nM and 186 nM and 133 nM and 101 nM and 67 nM and 80 nM
5 | Cc1c(OC2CCN(C(=O)OC(C)C)CC2)ncnc1N1CCn2nccc21 [Example 1, Isopropyl 4-{[6-(2,3-dihydro-1H-imidazo[1,2-b]pyrazol-1-yl)-5-methylpyrimidin-4-yl]oxy}piperidine-1-carboxylate] | 514 nM and 442 nM and 446 nM and 524 nM
6 | Cc1c(OC2CCN(C(=O)OC3(C)CC3)CC2)ncnc1N1CCn2nccc21 [Example 2, 1-Methylcyclopropyl 4-{[6-(2,3-dihydro-1H-imidazo[1,2-b]pyrazol-1-yl)-5-methylpyrimidin-4-yl]oxy}piperidine-1-carboxylate] | 305 nM
